The target in series [1] is T1, Escherichia coli β-glucuronidase (EcGUS) (Escherichia coli, UniProt P05804).
T1 construct: inferred from the pET28a vector and Ni-NTA purification; made in house; host or cells: E. coli BL21 (DE3)
The series can be described thus: EcGUS-mediated PNPG hydrolysis inhibition assay (screening at 10 µM and IC50). The class given is biochemical. Here is the method:
EcGUS was prepared according to our previous report. The recombinant strain were incubated in 200 mL of LB broth (Tryptone, 10 g/L; yeast extract, 5 g/L; NaCl, 10 g/L; pH 7.0) containing 1% kanamycin at 220 rpm and 37 °C until OD600 reached 0.5–0.6. Afterward, IPTG (final concentration, 0.5 mM) was added and the culture was incubated at 220 rpm and 16 °C for 16 h to induce the expression of β-glucuronidase. The cells were collected by centrifugation and suspended in PBS buffer (pH 7.4), and then applied to extract the enzyme by sonication. Finally, pure EcGUS was obtained from the cell-free extracts through a Ni-NTA column (EMD Millipore Corp., MA, USA). Protein concentration was determined using the BCA Protein Assay Kit (Beyotime, Shanghai, China) according to the manufacturer’s instruction, and its purity was determined by SDS-PAGE.
Thirteen thiazolidin-2-cyanamide derivatives were subjected to screening for potent EcGUS inhibitor. The inhibitory effects of these compounds were determined by measuring the PNP formation generated from PNPG by EcGUS. Briefly, the assays were conducted in 96-well flat-bottomed tissue culture plates (Nunc, Denmark) with a total volume of 100 µL which consisted of 10 µL EcGUS (final concentration, 2 µg/mL), 70 µL PBS buffer (pH 7.4), 10 µL test compound or DSL (final concentration, 10 µM) and 10 µL PNPG (final concentration, 250 µM). DSL was used as a positive control, and 1%DMSO was used as blank control. All reactions were performed in triplicate and the produced PNP was monitored by measuring absorbance at 405 nm in a plate reader (SpectraMax Plus384, Molecular Devices, CA, USA) after incubating at 37 °C for 30 min. The PNP concentration was determined from a standard curve (0, 10, 20, 40, 60, 80, 100, 120 µM PNP) in PBS buffer (pH 7.4). Relative activity was defined as a percent of PNP formation in the presence of test compound within 30 min compared with the blank control group.
IC50 values of the 13 thiazolidin-2-cyanamide derivatives against EcGUS were investigated using similar assays as described in Section 2.4. The reaction conditions are as follows: 10 µL pure enzyme (final concentration, 2 µg/mL), 70 µL PBS buffer (pH 7.4), 10 µL test compound or DSL (final concentration, 0.001–5000 µM) and 10 µL PNPG (final concentration, 250 µM) incubating at 37 °C for 30 min. The IC50 values were calculated by plotting the concentration–response curve using GraphPad Prism 6.0 (GraphPad Software, La Jolla, CA).
(§1) All experiments were carried out in triplicate and repeated at least two times. All data were expressed as mean ± standard deviation (SD). The IC50 values were defined as the concentration of inhibitor that is required for 50% inhibition and evaluated by nonlinear regression using GraphPad Prism 6.0 software (GraphPad Software, La Jolla, CA).

Series [2] deals with T1, Escherichia coli β-glucuronidase (EcGUS). As to the kind of experiment: Inhibition kinetic analysis (Lineweaver–Burk plots, Ki) against EcGUS. Conditions: for Ki: PNPG 0.2-1.0 mM, nonlinear regression; for Inhibition type: from intersection point in Lineweaver–Burk plots. The class given is biochemical. Here is the method: To further characterise the inhibition behaviour of discovered inhibitors, multiple concentrations of compounds (0.5–12 µM) or DSL (50–100 µM) and PNPG (0.2, 0.3, 0.5, and 1.0 mM) were applied to determine the corresponding reaction rates. The inhibition type was evaluated through determining the intersection point in Lineweaver–Burk plots, and the Ki values were calculated by nonlinear regression of different inhibition types using the GraphPad Prism 6.0 (GraphPad Software, La Jolla, CA).
as §1

The subject of the next series is EcGUS. As to conditions: cited from earlier work.
Where [3] appears, read: 10 µM compound, PNPG 250 µM, EcGUS 2 µg/mL, PBS pH 7.4, 37 °C, 30 min, read-out: Inhibition rate at 10 μM.
Setting [4] is: PNPG 250 µM, EcGUS 2 µg/mL, PBS pH 7.4, 37 °C, 30 min.
Where [5] appears, read: pH 7.4, read-out: Inhibition rate at 10 μM.

Structures are written as SMILES. Where “and” joins values, the source holds several entries; their conditions need not be identical. Identical values can stand only once. Like-named read-outs stand apart in the source and are kept apart here.

T1 sequence (P05804 whole entry): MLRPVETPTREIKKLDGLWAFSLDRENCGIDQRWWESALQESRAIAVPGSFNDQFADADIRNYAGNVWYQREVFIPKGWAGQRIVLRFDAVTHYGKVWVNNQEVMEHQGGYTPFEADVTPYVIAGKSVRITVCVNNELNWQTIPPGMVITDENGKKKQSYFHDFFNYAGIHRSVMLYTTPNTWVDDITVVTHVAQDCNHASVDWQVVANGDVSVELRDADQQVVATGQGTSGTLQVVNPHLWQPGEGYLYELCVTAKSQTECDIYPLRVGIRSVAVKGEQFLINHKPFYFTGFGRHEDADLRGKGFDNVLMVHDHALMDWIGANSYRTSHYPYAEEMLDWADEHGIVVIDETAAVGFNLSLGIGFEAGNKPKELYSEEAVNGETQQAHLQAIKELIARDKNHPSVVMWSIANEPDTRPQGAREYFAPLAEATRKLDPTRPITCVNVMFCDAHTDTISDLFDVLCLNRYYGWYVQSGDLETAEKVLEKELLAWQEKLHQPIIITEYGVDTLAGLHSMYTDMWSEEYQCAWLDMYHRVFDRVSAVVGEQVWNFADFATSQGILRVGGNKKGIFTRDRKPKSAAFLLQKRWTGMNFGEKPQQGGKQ

`N#C/N=C1\SCCN1C(=O)c1ccc(-c2ccccc2Cl)o1` [Compound 1]: the melting point (commonly the temperature, or range, at which the solid turns liquid) was in the range of 101 to 102 °C. For the same molecule, the inhibition (as a rule, the drop in the measured response relative to a control, in per cent) at 10 µM in series [1] (setting [3]) turned out to be 77.2 ± 0.6%. Also, in series [1] (setting [4]), the midpoint of inhibition, the IC50, lay at 5.7 ± 0.6 µM. Moreover, in series [2], the Ki (as a rule, the dissociation constant of the complex between target and ligand, obtained from inhibition or displacement) is < 3.5 µM and 3.5 µM; the Inhibition type entry is on record as “competitive EcGUS inhibitors”.

The molecule `N#C/N=C1\SCCN1C(=O)c1ccc(-c2cccc(Cl)c2)o1` [Compound 2] returned a melting point of 166 to 167 °C. In addition, the inhibition at 10 µM in series [1] (setting [3]) was determined as 95.2 ± 0.3%. Further, in series [1] (setting [4]), the IC50 (usually the concentration that inhibits the measured activity by half) is 1.2 ± 0.2 µM. Besides, in series [2], the Ki was < 3.5 µM and 0.7 µM; the Inhibition type entry is listed as “competitive EcGUS inhibitors”.

On to `N#C/N=C1\SCCN1C(=O)c1ccc(-c2ccc(Cl)cc2)o1` [Compound 3], for which the melting point is 149 to 150 °C. For the same molecule, the inhibition at 10 µM in series [1] (setting [3]) came out at 80.2 ± 1.8%. The IC50 in series [1] (setting [4]) turned out to be 4.7 ± 0.6 µM. For the same molecule, in series [2], the Ki is < 3.5 µM and 2 µM; the Inhibition type result is recorded as “competitive EcGUS inhibitors”.

Consider `N#C/N=C1\SCCN1C(=O)c1ccc(-c2ccccc2F)o1` [Compound 4], for which the melting point was 137 to 138 °C. Moreover, in series [1] (setting [3]), the inhibition at 10 µM stood at 61.6 ± 0.6%. In addition, inhibition in series [1] (setting [4]) was half-maximal at 11.9 ± 1.5 µM (IC50).

Consider `N#C/N=C1\SCCN1C(=O)c1ccc(-c2ccc(F)cc2)o1` [Compound 5], for which the melting point lay within 129 to 130 °C. Further, the inhibition at 10 µM in series [1] (setting [3]) turned out to be 66.5 ± 1.2%. Further, the half-inhibitory concentration (IC50) in series [1] (setting [4]) amounted to 7.3 ± 0.7 µM.

As for `N#C/N=C1\SCCN1C(=O)c1ccc(-c2ccc(F)cc2F)o1` [Compound 6], the melting point was 140 to 141 °C. The inhibition at 10 µM in series [1] (setting [3]) was 43.9 ± 0.7%. Inhibition in series [1] (setting [4]) was half-maximal at 23.1 ± 1.5 µM (IC50).

Take `N#C/N=C1\SCCN1C(=O)c1ccc(-c2c(F)cccc2F)o1` [Compound 7]: the melting point lay within 136 to 137 °C. The inhibition at 10 µM in series [1] (setting [3]) turned out to be 64.1 ± 1.2%. In addition, in series [1] (setting [4]), 9.3 ± 1.1 µM corresponded to half-maximal inhibition (IC50).

On to `N#C/N=C1\SCCN1C(=O)c1ccc(-c2ccccc2[N+](=O)[O-])o1` [Compound 8], for which the melting point fell in the range of 135 to 136 °C. For the same molecule, the IC50 in series [1] (setting [4]) is less than 10 µM. In addition, in series [1] (setting [5]), the inhibition at 10 µM was 31.4 ± 1.8%.

As to `N#C/N=C1\SCCN1C(=O)c1ccc(-c2ccc([N+](=O)[O-])cc2)o1` [Compound 9], the melting point is greater than 290 °C. Also, in series [1] (setting [3]), the inhibition at 10 µM worked out at 40.3 ± 3.2%. Also, the IC50 in series [1] (setting [4]) was determined as 22.2 ± 2.5 µM.

As to `N#C/N=C1\SCCN1C(=O)c1ccc(-c2ccc(Br)cc2)o1` [Compound 10], the melting point lay in the range of 169 to 170 °C. Further, the inhibition at 10 µM in series [1] (setting [3]) was 68.7 ± 1.8%. The concentration for half-maximal inhibition (IC50) in series [1] (setting [4]) came out at 10.8 ± 0.2 µM.

For the molecule `Cc1ccc(-c2ccc(C(=O)N3CCS/C3=N\C#N)o2)cc1` [Compound 11], the melting point lay within 151 to 152 °C. Moreover, the inhibition at 10 µM in series [1] (setting [3]) was 33.5 ± 2.5%. For the same molecule, the IC50 in series [1] (setting [4]) came to 22.3 ± 2.6 µM.

`COc1ccc(-c2ccc(C(=O)N3CCS/C3=N\C#N)o2)cc1` [Compound 12] registered a melting point of 151 to 152 °C. Moreover, the inhibition at 10 µM in series [1] (setting [3]) was 49.6 ± 0.6%. The concentration for half-maximal inhibition (IC50) in series [1] (setting [4]) is 18.5 ± 2.1 µM.

`N#C/N=C1\SCCN1C(=O)c1ccc(-c2ccccc2)o1` [Compound 13] had a melting point of 143 to 144 °C. Further, the inhibition at 10 µM in series [1] (setting [3]) came out at 61.8 ± 1.3%. The molecule further yielded an IC50 in series [1] (setting [4]) of 10.7 ± 0.5 µM.

As to `O=C(O)[C@@H](O)[C@H]1OC(=O)[C@H](O)[C@H]1O` [D-Saccharic acid 1,4-lactone, D-saccharic acid-1,4-lactone, reference compound], the concentration for half-maximal inhibition (IC50) in series [1] (setting [4]) was found to be 67.3 ± 0.6 µM. In addition, the inhibition at 10 µM in series [1] (setting [5]) was found to be 11.6 ± 0.6%. In series [2], the affinity corresponds to a Ki of 30.9 ± 2.2 µM and the Inhibition type result was “mixed inhibitors”.

With `O=c1cc(-c2ccc(O)cc2)oc2cc(O)c(O)c(O)c12` [Scutellarein], the “Inhibition type against EcGUS” value with EcGUS is reported as “potent competitive inhibitors”.

Take `Clc1ccc2c(c1)C(N1CCNCC1)=Nc1ccccc1O2` [amoxapine]: in the series with EcGUS, the “Inhibition type against EcGUS” value is on record as “uncompetitive inhibition”.

Take `CCOC(=O)/C=C/c1ccc(O)c(O)c1` [caffeic acid ethyl ester]: the “Inhibition type against EcGUS” value in the series with EcGUS is listed as “potent competitive inhibitors”.

On to `CC(C)=CCc1c(-c2ccc(O)cc2O)oc2c([C@H]3C=C(C)C[C@@H](c4ccc(O)cc4O)[C@@H]3C(=O)c3ccc(O)cc3O)c(O)cc(O)c2c1=O` [kuwanon G], for which the “Inhibition type against EcGUS” value with EcGUS is “mixed-type inhibition”.

For `CC(C)=CC[C@]12Oc3cc(O)c([C@H]4C=C(C)C[C@H](c5ccc(O)cc5O)[C@H]4C(=O)c4ccc(O)cc4O)c(O)c3C(=O)[C@@]1(O)Oc1cc(O)ccc12` [sanggenon C], in the series with EcGUS, the “Inhibition type against EcGUS” value was “mixed-type inhibition”.
